Patent US4255435A, “Triazole compounds” (priority 1980, dated 1981)

Key:
[1] = test system: larvae of the diamond back moth (Plutella maculipennis); assay: Mortality of larvae of the diamond back moth on treated cabbage leaf; format: in vivo; conditions: Table 1; cabbage leaf dipped in test solution, mortality after 24 + 24 hours, two replicates; 2880 min
Procedure: (§1) Ten larvae were placed in a tube together with a square inch of cabbage leaf which had been dipped in the test solution and allowed to dry. After twenty-four hours untreated cabbage was added for food and after a further twenty-four hours an assessment was made of the mortality of the larvae.
Two replicates were carried out for each test compound and test solutions of varying concentrations employed so that an LD50 value could be calculated.

[2] = test system: larvae of the cabbage white butterfly (Pieris brassicae); assay: Mortality of larvae of the cabbage white butterfly on treated cabbage leaf; format: in vivo; conditions: Table 3; cabbage leaf dipped in test solution, mortality after 24 + 24 hours, two replicates; 2880 min
Procedure: This example illustrates the activity of compounds of the invention against larvae of the cabbage white butterfly (Pieris brassicae).
as §1

[3] = test system: larvae of the codling moth (Cydia pomonella); assay: Codling moth larvae on sprayed apple (number of strikes); format: in vivo; conditions: Table 5, after five days, two replicates, 7200 min
Text: This example illustrates the activity of compounds of the invention against the larvae of the codling moth (Cydia pomonella).
An apple sprayed with test solution was allowed to dry and a perspex ring of 1 inch diameter was attached to the apple. Ten larvae were then placed on the apple surface and contained within the ring by means of a muslin covering. After five days an assessment of mortality was made by counting the number of strikes (i.e. the number of entry holes) made by the larvae.

[4] = test system: aphid Megoura viciae; assay: Aphids on sprayed broad bean plants; format: in vivo; conditions: Table 6; sprayed infested broad bean plants, 24 hours
Procedure: Broad bean plants 3 to 5 cm. high were infested with aphids and then sprayed with an aqueous dispersion containing varying concentrations of test compound. Each plant was kept under a lamp glass for 24 hours and then examined. In this way an LD50 value for the compounds was calculated.

[5] = test system: eggs of the cabbage root fly (Erioischia brassicae); assay: Egg hatch of cabbage root fly eggs in test solution; format: in vivo; conditions: Table 4; eggs stored six days, egg hatch counted, two replicates; 8640 min
Text: This example illustrates the activity of compounds of the invention against the eggs of the cabbage root fly (Erioischia brassicae).
The eggs were then stored for six days and the egg hatch then counted.

[6] = test system: nematode Meloidogyne incognita incognita; assay: Root knots of tomato plants in nematode-infested treated soil; format: in vivo; conditions: 100 parts per million per unit volume of soil, 30° C., ten days; untreated controls average more than 20 knots
Procedure: This example illustrates the activity of compounds of the invention against the nematode Meloidogyne incognita incognita.
Small tomato plants were transferred to containers with infested soil. Sufficient test compound to give a concentration of 100 parts per million per unit volume of soil was poured onto the soil and the containers suspended in warm water at 30° C.
After ten days the plants were knocked out of the containers and the roots washed clean, the number of knots being noted. The latter was an indication of activity and a low score indicated high activity.

[7] = test system: insects; assay: Insecticidal activity; format: in vivo; conditions: in words
[8] = Mammalian toxicity; format: in vivo; conditions: in words
[9] = acute
[10] = acute; remark: listed apart in the source

Compound	ACTIVITY LD50 [1] [p.p.m.]	ACTIVITY LD50 [2] [p.p.m.]	ACTIVITY LD50 [3] [p.p.m.]	ACTIVITY LD50 [4] [p.p.m.]	ACTIVITY LD50 [5] [p.p.m.]	number of knots on roots [6] [knots]	insecticidal activity [7]	mammalian toxicity [8]	mammalian toxicity when presented as a powder formulation ([8]; (wettable) powder formulation, listed as first compound)	mammalian toxicity when presented as a powder formulation ([8]; wettable powder formulation)	Oral toxicity (rat) LD50 [9] [mg/kg]	Dermal toxicity (rat) LD50 (acute, dermal, rat) [mg/kg]	effect of wettable powder formulation on dermal toxicity (in words, wettable powder formulation)	Oral toxicity (mouse) LD50 [10] [mg/kg]
1(2)-N,N-dimethylcarbamoyl-3-isopropyl-5-methylthio-1,2,4-triazole [methyl methyl isopropyl methyl]	160	59	37	1.1										
1(2)-N,N-dimethylcarbamoyl-3-t-butyl-5-but-2-enylthio-1,2,4-triazole [methyl methyl t-butyl but-2-enyl]	220	27	10	0.19	1.2	≤ 2	high insecticidal activity	low mammalian toxicity	sufficiently low	sufficiently low mammalian toxicity	40 to 80	40	reduces the dermal toxicity	80 to 160
1(2)-N,N-dimethylcarbamoyl-3-t-butyl-5-ethylthio-1,2,4-triazole [methyl methyl t-butyl ethyl]			24	0.71		≤ 2								
C#CCSc1nc(C(C)C)nn1C(=O)N(C)C [methyl methyl isopropyl prop-2-ynyl, 1(2)-N,N-dimethylcarbamoyl-3-isopropyl-5-prop-2-ynylthio-1,2,4-triazole]	87	31		1.5										
CSc1nc(C(C)(C)C)nn1C(=O)N(C)C [methyl methyl t-butyl methyl, 1-N,N-dimethylcarbamoyl-3-t-butyl-5-methylthio-1,2,4-triazole]						≤ 2	insecticidally active	too high to permit the more widespread use						
C#CCSc1nc(C(C)(C)C)nn1C(=O)N(C)C [methyl methyl t-butyl prop-2-ynyl, 1(2)-N,N-dimethylcarbamoyl-3-t-butyl-5-prop-2-ynylthio-1,2,4-triazole]	33	27		1.1	0.8	≤ 2								
